In patent US9302999B2, “Substituted triazoles as herbicides” (E. I. DU PONT DE NEMOURS AND COMPANY, priority 2012, dated 2016):

Legend:
Assay type in all cases: in vivo
[1] = system: foxtail, giant (giant foxtail, Setaria faberii); experiment: Test A pre-/postemergence: foxtail, giant; conditions: for Foxtail, Giant plant response rating: Postemergence; for Plant response rating, Foxtail, Giant: Preemergence
Method in brief: (§1)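 Compounds, formulated with surfactant in non-phytotoxic solvent, were applied as a directed soil spray preemergence and as postemergence sprays to 2–10 cm, one- to two-leaf seedlings grown in loam soil blended with sand; visual injury, 0–100, assessed ~10 days post-treatment against untreated controls.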

[2] = system: velvetleaf (Abutilon theophrasti); experiment: Test A pre-/postemergence: velvetleaf; conditions: for Velvetleaf plant response rating: Postemergence; for Plant response rating, Velvetleaf: Preemergence
Method in brief: as §1

[3] = system: sedge, umbrella (small-flower umbrella sedge Cyperus difformis); experiment: Test B flooded paddy: sedge, umbrella; conditions: Flood; 250 g ai/ha; applied to paddy water at 2-leaf stage; visually evaluated after 13 to 15 days
Procedure: (§2) Seeds selected from rice (Oryza sativa), sedge, umbrella (small-flower umbrella sedge Cyperus difformis), ducksalad (Heteranthera limosa), and barnyardgrass (Echinochloa crus-galli) were grown to the 2-leaf stage for testing. At time of treatment, test pots were flooded to 3 cm above the soil surface, treated by application of test compounds directly to the paddy water, and then maintained at that water depth for the duration of the test.
(§3) Treated plants and controls were maintained in a greenhouse for 13 to 15 days, after which time all species were compared to controls and visually evaluated. Plant response ratings, summarized in Table B, are based on a scale of 0 to 100 where 0 is no effect and 100 is complete control. A dash (-) response means no test result.

[4] = system: rice (Oryza sativa); experiment: Test B flooded paddy: rice; conditions: Flood; 250 g ai/ha; applied to paddy water at 2-leaf stage; visually evaluated after 13 to 15 days
Procedure: as §2, §3

[5] = system: wheat (Triticum aestivum); experiment: Test A pre-/postemergence: wheat; conditions: for Wheat plant response rating: Postemergence; for Plant response rating, Wheat: Preemergence
Method in brief: as §1

[6] = system: crabgrass, large (large crabgrass, Digitaria sanguinalis); experiment: Test A pre-/postemergence: crabgrass, large; conditions: for Crabgrass, Large plant response rating: Postemergence; for Plant response rating, Crabgrass, Large: Preemergence
Method in brief: as §1

[7] = system: barnyardgrass (Echinochloa crus-galli); experiment: Test A pre-/postemergence: barnyardgrass; conditions: for Barnyardgrass plant response rating: Postemergence; for Plant response rating, Barnyardgrass: Preemergence
Method in brief: as §1

[8] = system: corn (Zea mays); experiment: Test A pre-/postemergence: corn; conditions: for Corn plant response rating: Postemergence; for Plant response rating, Corn: Preemergence
Method in brief: as §1

[9] = system: morningglory (Ipomoea spp.); experiment: Test A pre-/postemergence: morningglory; conditions: for Morningglory plant response rating: Postemergence; for Plant response rating, Morningglory: Preemergence
Method in brief: as §1

[10] = system: pigweed (Amaranthus retroflexus); experiment: Test A pre-/postemergence: pigweed; conditions: for Pigweed plant response rating: Postemergence; for Plant response rating, Pigweed: Preemergence
Method in brief: as §1

[11] = system: barnyardgrass (Echinochloa crus-galli); experiment: Test B flooded paddy: barnyardgrass; conditions: Flood; 250 g ai/ha; applied to paddy water at 2-leaf stage; visually evaluated after 13 to 15 days
Procedure: as §2, §3

[12] = system: ducksalad (Heteranthera limosa); experiment: Test B flooded paddy: ducksalad; conditions: Flood; 250 g ai/ha; applied to paddy water at 2-leaf stage; visually evaluated after 13 to 15 days
Procedure: as §2, §3

[13] = system: sedge, umbrella (small-flower umbrella sedge, Cyperus difformis); experiment: Test C flooded paddy test: sedge, umbrella; conditions: scale 0 to 100 (0 no effect, 100 complete control)
Method in brief: (§4)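 Visual ratings from 0 (no effect) to 100 (complete control), made against untreated controls 13 to 15 days after treatment, express plant response. Compounds went directly into paddy water over 2-leaf stage plants in pots flooded to 3 cm.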

[14] = system: barnyardgrass (Echinochloa crus-galli); experiment: Test C flooded paddy test: barnyardgrass; conditions: scale 0 to 100 (0 no effect, 100 complete control)
Method in brief: as §4

[15] = system: ducksalad (Heteranthera limosa); experiment: Test C flooded paddy test: ducksalad; conditions: scale 0 to 100 (0 no effect, 100 complete control)
Method in brief: as §4

[16] = system: rice (Oryza sativa); experiment: Test C flooded paddy test: rice; conditions: scale 0 to 100 (0 no effect, 100 complete control)
Method in brief: as §4

[17] = 125 g ai/ha, 0 to 100 scale, 0 is no effect, 100 is complete control
[18] = 500 g ai/ha, visual rating on 0 to 100 scale (0 no effect, 100 complete control), approximately ten days
[19] = 125 g ai/ha, 0 to 100 scale (0 no effect, 100 complete control)
[20] = 500 g ai/ha, 0 to 100 scale, 0 is no effect, 100 is complete control
[21] = Flood (flooded paddy test), 125 g ai/ha, visual rating after 13 to 15 days
[22] = Flood (flooded paddy test), 250 g ai/ha, visual rating after 13 to 15 days
[23] = 125 g ai/ha, 0 to 100 scale where 0 is no effect and 100 is complete control
[24] = 500 g ai/ha, 0 to 100 scale (0 no effect, 100 complete control)

Cc1nn(-c2ccnc(F)c2)nc1C(=O)c1cccc(C(F)(F)F)c1 [Compound 3]
40: Wheat plant response rating [5, 18] | Plant response rating, Wheat [5, 20] | Crabgrass, Large plant response rating [6, 17]
20: Corn plant response rating [8, 17]
10: Plant response rating, Velvetleaf [2, 20] | Plant response rating, Barnyardgrass [7, 19] | Plant response rating, Corn [8, 20]
30: Foxtail, Giant plant response rating [1, 17] | Wheat plant response rating [5, 17] | Barnyardgrass plant response rating [7, 17] | Corn plant response rating [8, 18] | Morningglory plant response rating [9, 17]
70: Plant response rating, Pigweed [10, 19]
60: Velvetleaf plant response rating [2, 18]
100: Plant response rating, Foxtail, Giant [1, 20] | Plant response rating, Crabgrass, Large [6, 20] | Morningglory plant response rating [9, 18] | Pigweed plant response rating [10, 18] | Plant response rating, Pigweed [10, 20]
50: Velvetleaf plant response rating [2, 17] | Barnyardgrass plant response rating [7, 18] | Plant response rating, Barnyardgrass [7, 20] | Plant response rating, Morningglory [9, 20]
0: Plant response rating, Velvetleaf [2, 19] | Plant response rating, Sedge, Umbrella (0 to 100 scale, 0 is no effect, 100 is complete control) [3] | Plant response rating, Rice (0 to 100 scale, 0 is no effect, 100 is complete control) [4] | Plant response rating, Wheat [5, 19] | Plant response rating, Corn [8, 19] | Plant response rating, Morningglory [9, 19] | Plant response rating, Barnyardgrass (0 to 100 scale, 0 is no effect, 100 is complete control) [11] | Plant response rating, Ducksalad (0 to 100 scale, 0 is no effect, 100 is complete control) [12]
90: Foxtail, Giant plant response rating [1, 18] | Plant response rating, Foxtail, Giant [1, 19] | Crabgrass, Large plant response rating [6, 18] | Plant response rating, Crabgrass, Large [6, 19] | Pigweed plant response rating [10, 17]

Cc1nn(-c2ccnc(Cl)c2)nc1C(=O)c1cccc(C(F)(F)F)c1 [Compound 4]
10: Plant response rating, Barnyardgrass [7, 19]
70: Plant response rating, Sedge, Umbrella (0 to 100 scale, 0 is no effect, 100 is complete control) [3] | Crabgrass, Large plant response rating [6, 18]
60: Plant response rating, Barnyardgrass [7, 20]
20: Foxtail, Giant plant response rating [1, 17] | Wheat plant response rating [5, 17] | Barnyardgrass plant response rating [7, 17] | Corn plant response rating [8, 17] | Morningglory plant response rating [9, 17] | Plant response rating, Barnyardgrass (0 to 100 scale, 0 is no effect, 100 is complete control) [11]
30: Velvetleaf plant response rating [2, 17] | Velvetleaf plant response rating [2, 18] | Plant response rating, Wheat [5, 20] | Crabgrass, Large plant response rating [6, 17] | Barnyardgrass plant response rating [7, 18] | Corn plant response rating [8, 18]
100: Plant response rating, Foxtail, Giant [1, 20] | Pigweed plant response rating [10, 18] | Plant response rating, Pigweed [10, 20]
0: Plant response rating, Velvetleaf [2, 19] | Plant response rating, Velvetleaf [2, 20] | Plant response rating, Rice (0 to 100 scale, 0 is no effect, 100 is complete control) [4] | Plant response rating, Wheat [5, 19] | Plant response rating, Corn [8, 19] | Plant response rating, Corn [8, 20] | Plant response rating, Morningglory [9, 19]
90: Plant response rating, Crabgrass, Large [6, 20]
80: Plant response rating, Foxtail, Giant [1, 19] | Plant response rating, Crabgrass, Large [6, 19] | Pigweed plant response rating [10, 17]
40: Foxtail, Giant plant response rating [1, 18] | Wheat plant response rating [5, 18] | Morningglory plant response rating [9, 18] | Plant response rating, Morningglory [9, 20] | Plant response rating, Ducksalad (0 to 100 scale, 0 is no effect, 100 is complete control) [12]
50: Plant response rating, Pigweed [10, 19]

CCc1nn(-c2ccc(C(F)(F)F)cc2)nc1Cn1cc(C(F)(F)F)nc1Cl [Compound 122]
65: Plant response rating, Ducksalad [15, 22]
10: Plant response rating, Barnyardgrass ([14]; Flood, 31 g ai/ha) | Plant response rating, Corn [8, 23]
20: Plant response rating, Barnyardgrass ([14]; Flood, 62 g ai/ha) | Wheat plant response rating [5, 17] | Plant response rating, Wheat [5, 24] | Plant response rating, Barnyardgrass [7, 23] | Corn plant response rating [8, 17] | Plant response rating, Corn [8, 24] | Plant response rating, Morningglory [9, 23]
100: Plant response rating, Foxtail, Giant [1, 24] | Velvetleaf plant response rating [2, 18] | Plant response rating, Crabgrass, Large [6, 24] | Morningglory plant response rating [9, 18] | Pigweed plant response rating [10, 17] | Pigweed plant response rating [10, 18] | Plant response rating, Pigweed [10, 24]
40: Plant response rating, Barnyardgrass [14, 21] | Plant response rating, Barnyardgrass [14, 22] | Barnyardgrass plant response rating [7, 17]
75: Plant response rating, Sedge, Umbrella ([13]; Flood, 62 g ai/ha)
25: Plant response rating, Rice [16, 21]
60: Foxtail, Giant plant response rating [1, 17] | Plant response rating, Velvetleaf [2, 24] | Plant response rating, Ducksalad [15, 21]
85: Plant response rating, Sedge, Umbrella [13, 21] | Plant response rating, Sedge, Umbrella [13, 22]
70: Plant response rating, Sedge, Umbrella ([13]; Flood, 31 g ai/ha) | Barnyardgrass plant response rating [7, 18] | Plant response rating, Barnyardgrass [7, 24]
90: Foxtail, Giant plant response rating [1, 18] | Plant response rating, Foxtail, Giant [1, 23] | Crabgrass, Large plant response rating [6, 18] | Plant response rating, Crabgrass, Large [6, 23] | Morningglory plant response rating [9, 17] | Plant response rating, Pigweed [10, 23]
0: Plant response rating, Wheat [5, 23] | Plant response rating, Ducksalad ([15]; Flood, 31 g ai/ha) | Plant response rating, Ducksalad ([15]; Flood, 62 g ai/ha) | Plant response rating, Rice ([16]; Flood, 31 g ai/ha) | Plant response rating, Rice ([16]; Flood, 62 g ai/ha)
50: Plant response rating, Morningglory [9, 24]
30: Plant response rating, Velvetleaf [2, 23] | Wheat plant response rating [5, 18] | Corn plant response rating [8, 18] | Plant response rating, Rice [16, 22]
80: Velvetleaf plant response rating [2, 17] | Crabgrass, Large plant response rating [6, 17]
